Experimental data reported in US8410157B2, “Fungicidal N-cycloalkyl-benzyl-thiocarboxamides or N-cycloalkyl-benzyl-N′-substituted-amidine derivatives” (Bayer Cropscience AG, priority 2007, dated 2013).

Experiment: LogP (Table 1)
Type: physicochemical

SMILES	LogP
Cn1cc(C(=S)N(Cc2cc(Cl)ccc2Br)C2CC2)c(C(F)F)n1 [Compound 42]	3.89
Cn1cc(C(=S)N(Cc2c(Cl)cc(Cl)cc2Cl)C2CC2)c(Cl)n1 [Compound 52]	4.49
Cn1cc(C(=S)N(Cc2c(Cl)cccc2C(F)(F)F)C2CC2)c(C(F)F)n1 [Compound 34]	3.71
CCc1nn(C)cc1C(=S)N(Cc1ccccc1I)C1CC1 [Compound 53]	3.53
Cn1cc(C(=S)N(Cc2c(Cl)cccc2C(F)(F)F)C2CC2)c(Cl)n1 [Compound 50]	3.83
Cn1cc(C(=S)N(Cc2c(Cl)cccc2Cl)C2CC2)c(I)n1 [Compound 55]	3.71
Cc1nn(C)c(F)c1C(=S)N(Cc1c(Br)cc(Br)cc1Br)C1CC1 [Compound 13]	4.86
CCCC(c1ccc(Cl)cc1Cl)N(C(=S)c1c(C)nn(C)c1F)C1CC1 (racemic) [Compound 10]	4.97
Cc1nn(C)c(F)c1C(=S)N(Cc1ccc(-c2ccc(F)c(Cl)c2)cc1F)C1CC1 [Compound 2]	4.73
CCCc1nn(C)cc1C(=S)N(C1CC1)C(C)c1ccc(Cl)cc1Cl (racemic) [Compound 56]	4.39
Cc1nn(C)c(F)c1C(=S)N(Cc1ccc(Oc2ccccc2)cc1)C1CC1 [Compound 5]	4.06
Cc1nn(C)c(F)c1C(=S)N(Cc1ccccc1I)C1CC1 [Compound 12]	3.68
Cn1cc(C(=S)N(Cc2ccc(C(F)(F)F)cc2Cl)C2CC2)c(C(F)F)n1 [Compound 35]	4.09
Cc1nn(C)c(F)c1C(=S)N(Cc1ccccc1C(C)C)C1CC1 [Compound 14]	3.89
Cc1nn(C)c(F)c1C(=S)N(C1CC1)C(C)c1ccc(Cl)cc1Cl (racemic) [Compound 15]	4.14
Cn1cc(C(=S)N(Cc2c(Cl)cc(OC(F)(F)F)cc2Cl)C2CC2)c(C(F)(F)F)n1 [Compound 45]	4.9
Cn1cc(C(=S)N(Cc2cc3c(cc2Cl)OCO3)C2CC2)c(C(F)(F)F)c1 [Compound 44]	4.01
Cc1nn(C)c(F)c1C(=S)N(Cc1cc(Cl)ccc1Br)C1CC1 [Compound 22]	3.99
CCc1nn(C)c(F)c1C(=S)N(Cc1ccc(C(F)(F)F)cc1Cl)C1CC1 [Compound 28]	4.54
Cn1cc(C(=S)N(Cc2ccccc2Br)C2CC2)c(C(F)F)n1 [Compound 31]	3.46
Cc1ccc(C(F)(F)F)c(CN(C(=S)c2c(C)nn(C)c2F)C2CC2)c1 [Compound 16]	4.06

SMILES	LogP
Cc1nn(C)c(F)c1C(=S)N(Cc1ccccc1C1CCCCC1)C1CC1 [Compound 11]	5.17
Cn1cc(C(=S)N(Cc2cccc(OCc3ccccc3)c2)C2CC2)c(C(F)F)n1 [Compound 33]	4.06
Cn1cc(C(=S)N(Cc2ccccc2[Si](C)(C)C)C2CC2)c(C(F)F)n1 [Compound 37]	4.49
Cc1nn(C)c(F)c1C(=S)N(Cc1ccc(C(F)(F)F)cc1Cl)C1CC1 [Compound 8]	4.14
Cc1nn(C)c(F)c1C(=S)N(Cc1cccc(C(F)(F)F)c1Cl)C1CC1 [Compound 3]	3.92
Cc1nn(C)c(F)c1C(=S)N(Cc1cc(C(F)(F)F)ccc1Cl)C1CC1 [Compound 9]	3.96
Cn1cc(C(=S)N(Cc2cc(Cl)ccc2C(F)(F)F)C2CC2)c(C(F)F)n1 [Compound 36]	4.01
Cn1nc(C(=S)N(Cc2ccc(Cl)cc2Cl)C2CC2)c(C(F)(F)F)n1 [Compound 48]	4.95
CCc1cccc(CC)c1CN(C(=S)c1c(C)nn(C)c1F)C1CC1 [Compound 4]	4.39
Cc1oc(C(C)(C)C)cc1C(=S)N(Cc1ccccc1I)C1CC1 [Compound 54]	5.95
Cn1cc(C(=S)N(Cc2ccccc2I)C2CC2)c(Cl)n1 [Compound 51]	3.73
Cc1nn(C)c(F)c1C(=S)N(C1CC1)C(C)c1cc(Cl)ccc1Cl (racemic) [Compound 19]	4.04
Cc1nn(C)c(F)c1C(=S)N(Cc1c(Cl)cc(Cl)cc1Cl)C1CC1 [Compound 6]	4.42
Cc1nn(C)c(F)c1C(=S)N(Cc1ccccc1[Si](C)(C)C)C1CC1 [Compound 7]	4.64
Cc1nn(C)c(F)c1C(=S)N(C1CC1)C(C)c1cccc(OCc2ccccc2)c1 (racemic) [Compound 17]	4.36
Cc1nn(C)c(F)c1C(=S)N(Cc1ccc(Oc2ccc(Cl)cc2)cc1)C1CC1 [Compound 1]	4.59
Cc1nn(C)c(F)c1C(=S)N(Cc1ccc(Oc2ccc(Cl)cc2Cl)cc1)C1CC1 [Compound 18]	5
CC(c1cc(Cl)cc(Cl)c1)N(C(=S)c1cn(C)nc1Cl)C1CC1 (racemic) [Compound 49]	4.49
Cc1ccc(C(F)(F)F)c(CN(C(=S)c2cn(C)nc2C(F)F)C2CC2)c1 [Compound 32]	4.01
Cn1nc(C(=S)N(Cc2c(Cl)cccc2C(F)(F)F)C2CC2)c(C(F)(F)F)n1 [Compound 46]	4.67
Cn1nc(C(=S)N(Cc2cc(Cl)ccc2C(F)(F)F)C2CC2)c(C(F)(F)F)n1 [Compound 47]	4.94
